The supplement of paper PMC11208160

Experiment: recombinant barcode read abundance after kanamycin selection (control-corrected) (log10(CPM+1)); higher = more efficient recombination; sequences stand for … in AGTGCAGAGAAAATCGGCCAGTTTTCTCTGCCTGCAGTCCGCATGCCGT…ATTTATGCAGCGGACTGCCTTTCTCCCAAAGTGATAAACCGGACAGTATCATGGACCGGTTTTCCCGGTAATCCGTATTTGCAAGGTTGGTTTCACT; site = the 11-nt target
In short: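 Values are log10(CPM+1) from a pooled E. coli screen of targets paired with IS621 bridge RNA target-binding loops. Recombination efficiency here means counts per million of recombinant-junction barcodes, averaged and control-corrected. Plates were chloramphenicol/ampicillin LB agar for the control and chloramphenicol/ampicillin/kanamycin with 0.1 mM IPTG, two replicates each.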

| Sequence | recombinant barcode read abundance (log10) |
| --- | --- |
| GGGCGTGCATGGGTTCTAACCTGTTGCCTAG [GGGCGTGCTAG_LTGcore_CA_RTGcore_CT] (site GGGCGTGCTAG) (LTG core: CA, RTG core: CT) | 0.233 |
| GAGTCCTAATGGGTTCTAACCTGTTGCCTAG [GAGTCCTCTAG_LTGcore_AA_RTGcore_CT] (site GAGTCCTCTAG) (LTG core: AA, RTG core: CT) | 0.149 |
| GGGAGCCATTGGGTTCTAACCTGTTGCTGAG [GGGAGCCCTCA_LTGcore_AT_RTGcore_CT] (site GGGAGCCCTCA) (LTG core: AT, RTG core: CT) | 0.526 |
| TGTATTCATTGGGTTCTAACCTGTTGCCTAG [TGTATTCCTAG_LTGcore_AT_RTGcore_CT] (site TGTATTCCTAG) (LTG core: AT, RTG core: CT) | 0.0853 |
| AGGCGGGCTTGGGTTCTAACCTGTTGCGGCG [AGGCGGGCTCC_LTGcore_CT_RTGcore_CG] (site AGGCGGGCTCC) (LTG core: CT, RTG core: CG) | 0.146 |
| CGCGCCCCTTGGGTTCTAACCTGTTGCGGCA [CGCGCCCCTCC_LTGcore_CT_RTGcore_TG] (site CGCGCCCCTCC) (LTG core: CT, RTG core: TG) | 0 |
| GAGCCCATCTGGGTTCTAACCTGTTGCCTAG [GAGCCCACTAG_LTGcore_TC_RTGcore_CT] (site GAGCCCACTAG) (LTG core: TC, RTG core: CT) | 0.102 |
| GTCGCCCTCTGGGTTCTAACCTGTTGCTAAG [GTCGCCCCTTA_LTGcore_TC_RTGcore_CT] (site GTCGCCCCTTA) (LTG core: TC, RTG core: CT) | 0 |
| GCGGGACCTTGGGTTCTAACCTGTTGCCTAG [GCGGGACCTAG_LTGcore_CT_RTGcore_CT] (site GCGGGACCTAG) (LTG core: CT, RTG core: CT) | 2.64 |
| ATGTCCCATTGGGTTCTAACCTGTTGCTCAG [ATGTCCCCTGA_LTGcore_AT_RTGcore_CT] (site ATGTCCCCTGA) (LTG core: AT, RTG core: CT) | 0.234 |
| AAACACACCTGGGTTCTAACCTGTTGCCTGG [AAACACACTAG_LTGcore_CC_RTGcore_CC] (site AAACACACTAG) (LTG core: CC, RTG core: CC) | 1.46 |
| ATGTCCCAGTGGGTTCTAACCTGTTGCTCAG [ATGTCCCCTGA_LTGcore_AG_RTGcore_CT] (site ATGTCCCCTGA) (LTG core: AG, RTG core: CT) | 0.0996 |
| GCGCGACATTGGGTTCTAACCTGTTGCTTAT [GCGCGACCTAA_LTGcore_AT_RTGcore_AT] (site GCGCGACCTAA) (LTG core: AT, RTG core: AT) | 0.493 |
| CGGTCCCAGTGGGTTCTAACCTGTTGCCAAG [CGGTCCCCTTG_LTGcore_AG_RTGcore_CT] (site CGGTCCCCTTG) (LTG core: AG, RTG core: CT) | 0.0476 |
| GAGTCCATCTGGGTTCTAACCTGTTGCGTAG [GAGTCCACTAC_LTGcore_TC_RTGcore_CT] (site GAGTCCACTAC) (LTG core: TC, RTG core: CT) | 0.0202 |
| ATGTCCCCTTGGGTTCTAACCTGTTGCTCGG [ATGTCCCCTGA_LTGcore_CT_RTGcore_CC] (site ATGTCCCCTGA) (LTG core: CT, RTG core: CC) | 0.29 |
| AAACACACTTGGGTTCTAACCTGTTGCCTGG [AAACACACTAG_LTGcore_CT_RTGcore_CC] (site AAACACACTAG) (LTG core: CT, RTG core: CC) | 0.927 |
| AGGCGGTAATGGGTTCTAACCTGTTGCTTAG [AGGCGGTCTAA_LTGcore_AA_RTGcore_CT] (site AGGCGGTCTAA) (LTG core: AA, RTG core: CT) | 0.371 |
| AGGCGGTCTTGGGTTCTAACCTGTTGCTTGT [AGGCGGTCTAA_LTGcore_CT_RTGcore_AC] (site AGGCGGTCTAA) (LTG core: CT, RTG core: AC) | 0.127 |

| Sequence | recombinant barcode read abundance (log10) |
| --- | --- |
| GGCTCCCTCTGGGTTCTAACCTGTTGCGGAG [GGCTCCCCTCC_LTGcore_TC_RTGcore_CT] (site GGCTCCCCTCC) (LTG core: TC, RTG core: CT) | 0.172 |
| GCGGGACTTTGGGTTCTAACCTGTTGCCTAA [GCGGGACCTAG_LTGcore_TT_RTGcore_TT] (site GCGGGACCTAG) (LTG core: TT, RTG core: TT) | 0.186 |
| CGCGCCCAGTGGGTTCTAACCTGTTGCGGCT [CGCGCCCCTCC_LTGcore_AG_RTGcore_AG] (site CGCGCCCCTCC) (LTG core: AG, RTG core: AG) | 0.0334 |
| CATATTAACTGGGTTCTAACCTGTTGCCTAG [CATATTACTAG_LTGcore_AC_RTGcore_CT] (site CATATTACTAG) (LTG core: AC, RTG core: CT) | 0.441 |
| GAGTCCTCTTGGGTTCTAACCTGTTGCCTCG [GAGTCCTCTAG_LTGcore_CT_RTGcore_CG] (site GAGTCCTCTAG) (LTG core: CT, RTG core: CG) | 1.19 |
| CGCGCCCTTTGGGTTCTAACCTGTTGCGGAG [CGCGCCCCTCC_LTGcore_TT_RTGcore_CT] (site CGCGCCCCTCC) (LTG core: TT, RTG core: CT) | 0.127 |
| AGGCGGGCTTGGGTTCTAACCTGTTGCGGAT [AGGCGGGCTCC_LTGcore_CT_RTGcore_AT] (site AGGCGGGCTCC) (LTG core: CT, RTG core: AT) | 0.513 |
| TCGCGACCTTGGGTTCTAACCTGTTGCCGTG [TCGCGACCTCG_LTGcore_CT_RTGcore_CA] (site TCGCGACCTCG) (LTG core: CT, RTG core: CA) | 0.0363 |
| AAACACACGTGGGTTCTAACCTGTTGCCTAG [AAACACACTAG_LTGcore_CG_RTGcore_CT] (site AAACACACTAG) (LTG core: CG, RTG core: CT) | 0.622 |
| TGTATTCGATGGGTTCTAACCTGTTGCCTAG [TGTATTCCTAG_LTGcore_GA_RTGcore_CT] (site TGTATTCCTAG) (LTG core: GA, RTG core: CT) | 0.0114 |
| TGATACCCATGGGTTCTAACCTGTTGCGTTG [TGATACCCTAC_LTGcore_CA_RTGcore_CA] (site TGATACCCTAC) (LTG core: CA, RTG core: CA) | 0.0326 |
| GGGAGCCCTTGGGTTCTAACCTGTTGCTGAG [GGGAGCCCTCA_LTGcore_CT_RTGcore_CT] (site GGGAGCCCTCA) (LTG core: CT, RTG core: CT) | 1.87 |
| TAGAGGGCGTGGGTTCTAACCTGTTGCGGAG [TAGAGGGCTCC_LTGcore_CG_RTGcore_CT] (site TAGAGGGCTCC) (LTG core: CG, RTG core: CT) | 2.42 |
| GGACACCCATGGGTTCTAACCTGTTGCCTTG [GGACACCCTAG_LTGcore_CA_RTGcore_CA] (site GGACACCCTAG) (LTG core: CA, RTG core: CA) | 0.0906 |
| CGCGCCCATTGGGTTCTAACCTGTTGCGGAG [CGCGCCCCTCC_LTGcore_AT_RTGcore_CT] (site CGCGCCCCTCC) (LTG core: AT, RTG core: CT) | 0.0641 |
| AAACATGTTTGGGTTCTAACCTGTTGCCTAA [AAACATGCTAG_LTGcore_TT_RTGcore_TT] (site AAACATGCTAG) (LTG core: TT, RTG core: TT) | 0.632 |
| ATGTCCCGTTGGGTTCTAACCTGTTGCTCAC [ATGTCCCCTGA_LTGcore_GT_RTGcore_GT] (site ATGTCCCCTGA) (LTG core: GT, RTG core: GT) | 0.0823 |
| GGGAGCCTGTGGGTTCTAACCTGTTGCTGAG [GGGAGCCCTCA_LTGcore_TG_RTGcore_CT] (site GGGAGCCCTCA) (LTG core: TG, RTG core: CT) | 0.259 |
| AGGCGGTGTTGGGTTCTAACCTGTTGCTTAG [AGGCGGTCTAA_LTGcore_GT_RTGcore_CT] (site AGGCGGTCTAA) (LTG core: GT, RTG core: CT) | 0.203 |
